Test results as given in patent EP2787003A1, “Antimicrobial peptide produced by marine sponge-derived Bacillus subtilis” (priority 2013, dated 2014).

Key:
B. cereus = experiment: Spot on lawn assay; format: cell-based, Bacillus cereus NCIMB 9373; design: key: +, clear halo of growth inhibition; ++: multiple +, increased activity as assessed visually by the increased diameter of the inhibition zone; +++: multiple +, increased activity as assessed visually by the increased diameter of the inhibition zone; ++++: multiple +, increased activity as assessed visually by the increased diameter of the inhibition zone; +++++: multiple +, increased activity as assessed visually by the increased diameter of the inhibition zone; -, no inhibition; conditions: indicator B. cereus
Experimental: (§1) Antimicrobial activity of isolate MMA7 against the indicator strains was initially assessed with a deferred antagonism assay as described by Phelan et al. (2012). Subsequent testing of supernatants, crude extracts and purified compounds was carried out with a well and/or a spot on lawn assays. Essentially, 5 µl of samples were spotted onto 20 ml agar plates seeded with the indicator strain to a final OD600 of 0.015, or 30 µl aliquots were applied to a 5 mm well made on identical plates.

B. megaterium = experiment: Spot on lawn assay; format: cell-based, Bacillus megaterium ATCC 19213 (BGSC 7A2); design: key: +, clear halo of growth inhibition; ++: multiple +, increased activity as assessed visually by the increased diameter of the inhibition zone; +++: multiple +, increased activity as assessed visually by the increased diameter of the inhibition zone; ++++: multiple +, increased activity as assessed visually by the increased diameter of the inhibition zone; +++++: multiple +, increased activity as assessed visually by the increased diameter of the inhibition zone; -, no inhibition; conditions: indicator B. megaterium
Experimental: as §1

V. anguillarum = experiment: Spot on lawn assay; format: cell-based, Listonella (Vibrio) anguillarum LMG 4410; design: key to Antimicrobial activity, spot on lawn assay: +, clear halo of growth inhibition; ++: multiple +, increased activity as assessed visually by the increased diameter of the inhibition zone; +++: multiple +, increased activity as assessed visually by the increased diameter of the inhibition zone; ++++: multiple +, increased activity as assessed visually by the increased diameter of the inhibition zone; +++++: multiple +, increased activity as assessed visually by the increased diameter of the inhibition zone; -, no inhibition
Experimental: as §1

C. albicans = experiment: Spot on lawn assay; format: cell-based, Candida albicans SC5314; design: key: +, clear halo of growth inhibition; ++: multiple +, increased activity as assessed visually by the increased diameter of the inhibition zone; +++: multiple +, increased activity as assessed visually by the increased diameter of the inhibition zone; ++++: multiple +, increased activity as assessed visually by the increased diameter of the inhibition zone; +++++: multiple +, increased activity as assessed visually by the increased diameter of the inhibition zone; -, no inhibition; conditions: indicator C. albicans
Experimental: as §1

[1] = system: protease mixture from Streptomyces griseus; experiment: Susceptibility to proteolytic enzymes, bioactivity by spot on lawn assay; conditions: Streptomyces griseus protease 1 mg ml^-1, 37 °C, 1 h; indicator L. monocytogenes

Compound: C=C1NC(=O)[C@@H]2CSC[C@@H](NC(=O)[C@@H]3CS[C@@H](C)[C@H]4NC(=O)[C@H](Cc5ccccc5)NC(=O)[C@H](NC(=O)[C@H](CCCNC(=N)N)NC(=O)[C@@H]5CSC[C@@H](NC(=O)[C@H](CCC(N)=O)NC(=O)[C@@H](NC(=O)[C@@H](NC(=O)/C(=C/C)NC(=O)[C@H](CCCCN)NC(=O)CNC(=O)[C@@H](NC(=O)/C(=C/C)NC(=O)[C@H](C)NC(=O)[C@H](Cc6c[nH]c7ccccc67)NC(=O)C(=O)CC)[C@@H](C)CC)[C@@H](C)CC)C(C)C)C(=O)N[C@@H](C(C)C)C(=O)N[C@@H](CCCCN)C(=O)N[C@@H](CCCCN)C(=O)N5)[C@H](C)SC[C@H](NC4=O)C(=O)NCC(=O)N3)C(=O)N[C@@H](CC(C)C)C(=O)NCC(=O)N[C@H](CSC[C@@H](C(=O)N[C@@H](CC(N)=O)C(=O)O)NC(=O)[C@H](CC(N)=O)NC1=O)C(=O)N2 [Subtilomycin]
- Antimicrobial activity, spot on lawn assay (B. cereus): ++
- Antimicrobial activity, spot on lawn assay (B. megaterium): ++
- Amount of peptide needed for detectable activity relative to that required to inhibit the Gram-positive indicators (V. anguillarum; V. anguillarum): four to five fold more peptide
- Antimicrobial activity, spot on lawn assay (V. anguillarum; indicator V. anguillarum, *activity only detected with 4 to 5 times more peptide than that used for the other indicators): +*
- Antimicrobial activity, spot on lawn assay (C. albicans): -
- Antimicrobial activity after proteolytic treatment [1]: complete loss of activity
